In publication PMC5591244, “Novel selective, potent naphthyl TRPM8 antagonists identified through a combined ligand- and structure-based virtual screening approach” (Scientific Reports, 2017):
Entries after “also recorded” stand apart in the source; their conditions may differ.

Tests used:
Type in all cases: cell-based
TRPM8 [1] = target: T1, TRPM8 (Homo sapiens, UniProt Q7Z2W7); test: Manual patch clamp (whole-cell voltage clamp); details: Cooling agent 10 50 μM, +40 mV, compound 1 300 nM
T1 construct: expressed in transfected cells
T1 sequence (Q7Z2W7 whole entry): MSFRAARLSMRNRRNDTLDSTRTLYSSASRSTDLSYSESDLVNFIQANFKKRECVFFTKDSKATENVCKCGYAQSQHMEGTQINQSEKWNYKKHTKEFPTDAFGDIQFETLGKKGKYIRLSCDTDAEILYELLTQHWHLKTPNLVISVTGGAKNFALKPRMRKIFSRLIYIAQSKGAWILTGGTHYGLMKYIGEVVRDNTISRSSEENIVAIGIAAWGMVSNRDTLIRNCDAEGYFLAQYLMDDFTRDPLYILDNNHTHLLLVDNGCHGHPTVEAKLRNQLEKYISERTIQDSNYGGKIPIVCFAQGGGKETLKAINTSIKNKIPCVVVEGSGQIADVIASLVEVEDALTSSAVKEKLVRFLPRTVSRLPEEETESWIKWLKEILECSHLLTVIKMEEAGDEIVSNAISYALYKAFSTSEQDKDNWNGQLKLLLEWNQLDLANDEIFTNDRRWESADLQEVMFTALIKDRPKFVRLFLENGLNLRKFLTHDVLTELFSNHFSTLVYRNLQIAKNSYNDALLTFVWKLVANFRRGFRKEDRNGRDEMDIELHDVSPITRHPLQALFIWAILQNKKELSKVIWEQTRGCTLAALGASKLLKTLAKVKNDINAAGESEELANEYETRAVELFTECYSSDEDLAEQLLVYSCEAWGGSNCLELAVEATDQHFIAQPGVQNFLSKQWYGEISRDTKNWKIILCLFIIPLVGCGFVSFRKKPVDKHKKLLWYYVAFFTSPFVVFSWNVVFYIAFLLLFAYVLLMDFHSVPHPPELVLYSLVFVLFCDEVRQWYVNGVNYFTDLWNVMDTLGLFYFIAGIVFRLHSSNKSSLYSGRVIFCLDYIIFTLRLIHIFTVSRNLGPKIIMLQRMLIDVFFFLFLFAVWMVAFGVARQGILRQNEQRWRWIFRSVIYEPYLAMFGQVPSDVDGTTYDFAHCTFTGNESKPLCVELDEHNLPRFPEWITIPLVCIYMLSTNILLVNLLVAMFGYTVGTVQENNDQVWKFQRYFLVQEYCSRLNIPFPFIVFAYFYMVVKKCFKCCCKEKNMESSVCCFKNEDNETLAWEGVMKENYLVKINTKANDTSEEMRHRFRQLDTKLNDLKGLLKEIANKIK
Experimental: Sixteen hours before an experiment, cells were seeded onto poly-D-lysine-coated glass slides (150,000 cells each) and placed in 6-well plates in antibiotic-free medium. Immediately before experiments, the coated glass slides with seeded cells were washed five times with patch-clamp extracellular solution (145 mM NaCl, 10 mM EGTA, 10 mM HEPES, 10 mM Glucose, pH 7.4 with NaOH) and then placed into the recording chamber.
The electrophysiology study involved a whole-cell voltage clamp and intracellular solution consisting of 128 mM CsCl, 10 mM EGTA, 0.7 mM CaCl2, 3 mM MgCl2, 10 mM HEPES, and 5 mM Na2ATP at pH 7.2 with CsOH. For the pulse protocols, cells were held at +40 mV, and outward currents were acquired in uninterrupted recording mode. Data were recorded in standard whole-cell voltage experiments performed at room temperature. For data acquisition and further analysis, an EPC10 digitally controlled amplifier was utilized in combination with PATCHMASTER software (HEKA Electronics, Lambrect, Germany). The EPC10 provides automatic subtraction of capacitive currents by means of the prepulse. The data were filtered at 2.9 KHz (−3 dB, 4-pole Bessel lowpass) and digitized at 100 µs per point. […] Outward currents elicited by the addition of 50 μM cooling agent 10 or of cooling agent 10 (50 μM) plus compound 1 (300 nM) were recorded.

TRPA1 = TRPA1 (Homo sapiens, UniProt O75762); test: Selectivity calcium mobilization assay, TRPA1; details: agonist 10 μM AITC
Chain of TRPA1 (O75762 whole entry, species assumed): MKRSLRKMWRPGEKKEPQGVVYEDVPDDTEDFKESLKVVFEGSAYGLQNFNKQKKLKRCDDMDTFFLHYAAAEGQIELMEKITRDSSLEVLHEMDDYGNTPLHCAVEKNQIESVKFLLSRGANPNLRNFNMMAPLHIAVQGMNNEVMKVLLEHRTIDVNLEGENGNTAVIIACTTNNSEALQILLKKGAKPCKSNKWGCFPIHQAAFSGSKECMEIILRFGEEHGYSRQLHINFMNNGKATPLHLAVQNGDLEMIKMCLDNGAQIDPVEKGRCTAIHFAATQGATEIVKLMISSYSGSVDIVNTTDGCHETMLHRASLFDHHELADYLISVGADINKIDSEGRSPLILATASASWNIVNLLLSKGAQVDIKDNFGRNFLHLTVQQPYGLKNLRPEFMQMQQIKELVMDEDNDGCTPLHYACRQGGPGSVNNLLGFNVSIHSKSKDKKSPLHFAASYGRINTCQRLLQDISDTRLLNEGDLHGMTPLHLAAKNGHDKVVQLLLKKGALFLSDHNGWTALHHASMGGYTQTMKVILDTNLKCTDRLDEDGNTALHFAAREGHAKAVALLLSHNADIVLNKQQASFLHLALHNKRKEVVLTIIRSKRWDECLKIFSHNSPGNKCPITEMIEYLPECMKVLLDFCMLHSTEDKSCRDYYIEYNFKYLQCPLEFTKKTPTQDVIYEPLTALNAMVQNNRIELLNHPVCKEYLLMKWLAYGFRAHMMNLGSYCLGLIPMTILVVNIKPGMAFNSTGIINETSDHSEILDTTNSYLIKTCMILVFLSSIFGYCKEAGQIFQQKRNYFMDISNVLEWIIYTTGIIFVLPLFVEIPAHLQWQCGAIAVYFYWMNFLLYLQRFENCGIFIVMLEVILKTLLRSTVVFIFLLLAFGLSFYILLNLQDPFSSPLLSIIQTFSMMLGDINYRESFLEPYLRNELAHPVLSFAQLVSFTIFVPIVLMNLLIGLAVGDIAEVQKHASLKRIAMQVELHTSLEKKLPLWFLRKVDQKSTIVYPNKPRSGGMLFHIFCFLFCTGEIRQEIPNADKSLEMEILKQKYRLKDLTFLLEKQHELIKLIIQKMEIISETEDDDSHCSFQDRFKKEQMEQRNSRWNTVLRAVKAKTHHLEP
Experimental: (§1) For calcium mobilization assays, cells were seeded at 10,000 cells/well in 384-well plates coated with poly-D-lysine (MATRIX black/clear bottom #4332-CPL, Thermo Scientific, Waltham, MA, USA) in complete medium.Twenty-four hours after seeding, the plates were washed with Tyrode’s buffer with a Bio-Tek-ELx405 Microplate Washer (Merck Millipore; Billerica, MA, USA), and then 10 µl/well of a solution containing the fluorescent Ca^2+ indicator Fluo-4 NW dye was added. Cells were incubated for 1 h at room temperature before test compounds were added at 3X the concentration with respect to the final wanted concentration to be tested with a FLIPR TETRA system (Molecular Devices, Sunnyvale, CA, USA). Calcium mobilization was monitored over a period of 5 min. A second injection of 10 µl/well of a reference agonist (icilin or Cooling agent 10) at 4X concentration in assay buffer was performed using the FLIPR TETRA system. Of note, for selectivity assays, the following agonists were used: 10 μM AITC (allyl isothiocyanate) for TRPA1; 100 nM Capsaicin for TRPV1; and 20 nM GSK1016790A for TRPV4.

TRPM8 D802A = target: T2, TRPM8 D802A (Homo sapiens, UniProt Q7Z2W7, D802A); test: Calcium mobilization on transiently transfected TRPM8 D802A mutant; details: Cooling agent 10 at EC80, D802A; read-out: pIC50, inhibition of Cooling agent 10 activation, D802A (converted)
T2 construct: expressed in transfected cells; host or cells: HEK-293, transient (Lipofectamine 2000)
T2 sequence (Q7Z2W7 whole entry D802A): as the sequence (Q7Z2W7 whole entry) above, with D802A counted along it
Excerpt: (§2) Single point mutations were introduced in the hTRPM8-coding sequence, and the mutated TRPM8 was cloned as N-terminal c-myc tagged version into the pcDNA3 expression vector. This was done in that way that the single variations could be easily swapped from the myc-tagged expression construct into the non-tagged TRPM8 wild type expression construct.
The list of the variants is the following: variant 1, t2233g, a2234c (=Y745A); variant 2, a2236g, t2237c (=I746A); variant 3, a2395g, a2396c (=N799A) and variant 4, a2405c (D802A). The cloning project comprised three steps. First of all, a unique XhoI restriction site was inserted by site-directed mutagenesis (SDM) using DNA of the pcDNA3_TRPM8 construct as template. The 0.6 kb DNA fragment between the unique 5′ XhoI (introduced) and 3′ BamHI (already present) restriction sites comprised all positions of the four single point mutations and could be later used for their insertion as well as swapping between myc-tagged and non-tagged TRPM8 versions. In a second step, the c-myc tag sequence was introduced embedded within the TRPM8 coding sequence by PCR primers in two partially overlapping PCRs that were then joined by bridge PCR with the external 5′KpnI and internal 3′EcoRI primers and in the last step the point mutations 1 to 4 were inserted into pcDNA3_c-myc-TRPM8 by exchanging the wild type 5′XhoI-3′BamHI fragment (0.6 kb) with each of the corresponding variation fragment derived from synthetic DNA (provided by GeneArt, ThermoFisher Scientific).The myc-tagged constructs were transiently transfected in HEK-293 cells with Lipofectamine 2000 (Invitrogen) according to the manufacturer’s protocol. The pcDNA vectors containing the wt myc-tagged TRPM8 gene and the empty pcDNA3 (mock) were separately transfected into HEK-293 cells as controls. […] The obtained data from at least four wells (as replicates) were analyzed with GraphPad PRISM® software (version 5, GraphPad Software Inc.) to calculate the mean and standard error of the mean[58], to create sigmoidal concentration-response curves and to calculate IC50 values.

TRPV1 = TRPV1 (Homo sapiens, UniProt Q8NER1); test: Selectivity calcium mobilization assay, TRPV1; details: agonist 100 nM Capsaicin
Chain of TRPV1 (Q8NER1 whole entry, species assumed): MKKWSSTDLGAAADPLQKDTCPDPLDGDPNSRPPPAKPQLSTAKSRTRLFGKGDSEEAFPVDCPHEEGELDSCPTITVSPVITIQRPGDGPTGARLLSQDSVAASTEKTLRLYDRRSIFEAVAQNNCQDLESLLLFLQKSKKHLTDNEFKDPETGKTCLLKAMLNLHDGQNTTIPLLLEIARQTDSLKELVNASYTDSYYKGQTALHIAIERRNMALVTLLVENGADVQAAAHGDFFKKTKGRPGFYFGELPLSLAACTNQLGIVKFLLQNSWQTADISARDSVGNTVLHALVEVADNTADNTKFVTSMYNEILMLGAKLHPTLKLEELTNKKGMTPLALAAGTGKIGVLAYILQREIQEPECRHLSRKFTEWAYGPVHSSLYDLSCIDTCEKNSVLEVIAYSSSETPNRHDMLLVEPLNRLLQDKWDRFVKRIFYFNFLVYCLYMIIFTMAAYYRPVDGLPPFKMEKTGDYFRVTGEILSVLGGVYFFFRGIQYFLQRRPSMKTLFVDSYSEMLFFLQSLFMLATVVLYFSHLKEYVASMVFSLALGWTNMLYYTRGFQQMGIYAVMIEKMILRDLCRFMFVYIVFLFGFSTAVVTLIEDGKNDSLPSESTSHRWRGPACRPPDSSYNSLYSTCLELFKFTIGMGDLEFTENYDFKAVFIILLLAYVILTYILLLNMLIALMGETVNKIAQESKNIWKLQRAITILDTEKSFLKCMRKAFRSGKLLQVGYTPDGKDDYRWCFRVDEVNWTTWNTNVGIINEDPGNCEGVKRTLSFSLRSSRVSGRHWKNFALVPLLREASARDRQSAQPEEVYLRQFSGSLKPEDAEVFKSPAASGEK
Experimental: as §1

TRPM8 I746A = target: T3, TRPM8 I746A (Homo sapiens, UniProt Q7Z2W7, I746A); test: Calcium mobilization on transiently transfected TRPM8 I746A mutant; details: icilin at EC80, I746A; read-out: pIC50, inhibition of icilin activation, I746A (converted)
T3 construct: expressed in transfected cells; host or cells: HEK-293, transient (Lipofectamine 2000)
T3 sequence (Q7Z2W7 whole entry I746A): as the sequence (Q7Z2W7 whole entry) above, with I746A counted along it
Excerpt: as §2
The list of the variants is the following: variant 1, t2233g, a2234c (=Y745A); variant 2, a2236g, t2237c (=I746A); variant 3, a2395g, a2396c (=N799A) and variant 4, a2405c (D802A). The cloning project comprised three steps. First of all, a unique XhoI restriction site was inserted by site-directed mutagenesis (SDM) using DNA of the pcDNA3_TRPM8 construct as template. The 0.6 kb DNA fragment between the unique 5′ XhoI (introduced) and 3′ BamHI (already present) restriction sites comprised all positions of the four single point mutations and could be later used for their insertion as well as swapping between myc-tagged and non-tagged TRPM8 versions. In a second step, the c-myc tag sequence was introduced embedded within the TRPM8 coding sequence by PCR primers in two partially overlapping PCRs that were then joined by bridge PCR with the external 5′KpnI and internal 3′EcoRI primers and in the last step the point mutations 1 to 4 were inserted into pcDNA3_c-myc-TRPM8 by exchanging the wild type 5′XhoI-3′BamHI fragment (0.6 kb) with each of the corresponding variation fragment derived from synthetic DNA (provided by GeneArt, ThermoFisher Scientific).The myc-tagged constructs were transiently transfected in HEK-293 cells with Lipofectamine 2000 (Invitrogen) according to the manufacturer’s protocol. The pcDNA vectors containing the wt myc-tagged TRPM8 gene and the empty pcDNA3 (mock) were separately transfected into HEK-293 cells as controls. Cells were transfected and seeded on the same day at 17,500 cells/well in poly-D-lysine-coated 384-well plates (MATRIX #4332-CPL). Twenty-four hours after seeding, the activity of transfected TRPM8 receptors was tested using the calcium mobilization assay as described above. The analysis was performed on the basis of ΔF/F° (normalized MAX-MIN), where ΔF is the MAX between time points 117 and 182 minus the MIN between time points TP114 and TP116, and F° is the basal signal at time point TP0. The obtained data from at least four wells (as replicates) were analyzed with GraphPad PRISM® software (version 5, GraphPad Software Inc.) to calculate the mean and standard error of the mean[58], to create sigmoidal concentration-response curves and to calculate IC50 values.

TRPV4 = TRPV4 (Homo sapiens, UniProt Q9HBA0); test: Selectivity calcium mobilization assay, TRPV4; details: agonist 20 nM GSK1016790A
Chain of TRPV4 (Q9HBA0 whole entry, species assumed): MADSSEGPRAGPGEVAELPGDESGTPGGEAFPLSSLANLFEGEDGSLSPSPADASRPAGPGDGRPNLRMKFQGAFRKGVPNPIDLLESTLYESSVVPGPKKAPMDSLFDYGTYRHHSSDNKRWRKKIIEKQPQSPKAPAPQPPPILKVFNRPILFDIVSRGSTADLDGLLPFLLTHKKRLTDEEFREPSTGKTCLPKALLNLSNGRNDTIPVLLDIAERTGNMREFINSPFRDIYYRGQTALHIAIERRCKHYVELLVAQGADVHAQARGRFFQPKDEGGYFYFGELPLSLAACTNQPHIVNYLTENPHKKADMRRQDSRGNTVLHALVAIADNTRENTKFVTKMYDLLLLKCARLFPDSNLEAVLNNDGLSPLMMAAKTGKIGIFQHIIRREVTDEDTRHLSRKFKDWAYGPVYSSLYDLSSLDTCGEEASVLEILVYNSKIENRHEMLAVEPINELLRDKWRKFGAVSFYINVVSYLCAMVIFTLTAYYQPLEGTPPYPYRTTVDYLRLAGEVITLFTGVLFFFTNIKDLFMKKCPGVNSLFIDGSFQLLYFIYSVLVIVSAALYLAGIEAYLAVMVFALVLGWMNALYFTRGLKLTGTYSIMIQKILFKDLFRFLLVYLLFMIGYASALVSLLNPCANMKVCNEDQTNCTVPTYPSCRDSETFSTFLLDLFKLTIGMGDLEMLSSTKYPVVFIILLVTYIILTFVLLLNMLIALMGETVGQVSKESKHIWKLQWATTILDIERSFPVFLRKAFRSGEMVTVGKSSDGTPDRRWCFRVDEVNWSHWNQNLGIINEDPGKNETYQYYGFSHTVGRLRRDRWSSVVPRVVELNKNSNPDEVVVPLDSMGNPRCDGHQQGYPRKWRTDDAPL
Experimental: as §1

TRPM8 [2] = target: T1, TRPM8; test: Schild regression versus icilin; details: data not shown
Experimental: Compound 1 was also tested in schild regression experiments[65] and compared with icilin and cooling agent (data not shown) to better characterize its mechanism of action. In these experiments, seven points for dose-response curves with icilin at seven different concentrations were analyzed.

IC50 (TRPM8 D802A): 3160 nM
IC50 (TRPM8 I746A): 20 nM
Activity on TRPV4 (TRPV4): completely inactive
Binding mechanism by Schild regression (TRPM8 [2]): orthosteric binding mechanism
Compound: Clc1c(OCCNCc2ccco2)ccc2ccccc12 [Compound 1]
Effect on outward current (TRPM8 [1]): completely abrogated electrical impulse transmission; also recorded: almost completely blocked
Activity on TRPA1 (TRPA1): completely inactive; also recorded: didn’t have any effect
Activity on TRPV1 (TRPV1): completely inactive; also recorded: didn’t have any effect
